We go through one molecule from patent EP0430108A2, “Use of oxetanocin-G for the treatment of varicella-zoster virus infections” (priority 1989, dated 1991).

The nature of series [1]: Single-dose intraperitoneal toxicity in the mouse. The series is classed as in vivo. Particulars: 400 mg/kg intraperitoneally, once. From the text: OXT-G and a pharmacologically acceptable salt thereof are each characterized by a low toxicity and a low cumulative toxicity upon repeated administration.
In a further series the test system is YS strain (TK^+ -VZV). Briefly: Anti-VZV activity, plaque reduction in human fetal pulmonary cells, YS strain. The series is classed as cell-based, varicella-zoster virus. Particulars: nonresistant strain of VZV (YS, TK^+); human fetal pulmonary cell monolayer, approximately 20 PFU, 5 days at 37 °C, plaque count. The protocol:
(§1) Next, the anti-VZV effect of OXT-G will be described in detail by reference to the following Test Example. Anti-VZV activity: • (1) Determination method A monolayer of human fetal pulmonary cells, which had been grown in Eagle minimum essential medium containing 10 % of newborn calf serum, 60 µg/ml of kanamycin and 0.075 % of NaHCO₃, (used as a growth medium) in a 96-well microplate, was inoculated with approximately 20 PFU of various viruses and incubated at 37 °C for 2 hours. After 0.1 ml of 2 % newborn calf serum containing OXT-G was freshly supplied, the incubation was continued at 37 °C for 5 days. Plaques in each well were counted under a microscope and the ratio (%) thereof to the plaque count of a control (no addition) was calculated to prepare a graph. Based on the graph, the median effective dose (ED₅₀) was determined. The employed virus stains were as follows: YS strain: TK^+ strain (carrying thymidine kinase) isolated from a patient of varicella (TK^+ -VZV). […] Thus it is expected as an excellent anti-VZV agent.

A further series relates to YSR strain (TK^- -VZV). The experiment in a line: Anti-VZV activity, plaque reduction in human fetal pulmonary cells, YSR strain. The series is classed as cell-based, varicella-zoster virus. Particulars: resistant strain of VZV (YSR, TK^-, drug-resistant); human fetal pulmonary cell monolayer, approximately 20 PFU, 5 days at 37 °C, plaque count. The protocol:
as §1

For `Nc1nc2c(ncn2C2OC(CO)C2CO)c(=O)[nH]1` (stereo not drawn) [OXT-G, oxetanocin-G], in series [1], the symptom of intoxication entry was “no symptom of intoxication could be observed”. The antiviral effects result with YS strain (TK^+ -VZV) and in the series with YSR strain (TK^- -VZV) was “excellent antiviral effects” each time.
